Measured values from patent publication US10532984B2, “Pyridonecarboxylic acid derivative or salt thereof” (priority 2016, dated 2020).
In brackets after ≈: the same amount, converted by molar mass.

How the values were obtained:
P. aeruginosa 2014-17 = test: Combined antibacterial effect with drug efflux pump inhibitor PAβN, broth microdilution MIC; type: cell-based; conditions: for MIC value P. aeruginosa 2014-17 PAβN +: P. aeruginosa 2014-17, with PAβN 50 μg/mL; for MIC value P. aeruginosa 2014-17 PAβN −: P. aeruginosa 2014-17, without PAβN
Description: (§1) The method used was a broth microdilution method according to the standard method of the Japanese Society of Chemotherapy (Chemotherapy, 38 (1), 102, 1990). In the condition which added H-Phe-Arg-βNA, 2HCl (PAβN) (50 μg/mL) as drug efflux pump inhibitor, the minimum inhibitory concentrations (MIC: μg/mL) was measured. The minimum inhibitory concentrations (MIC: μg/mL) of the conventional antimicrobial agents levofloxacin and cefepime as a positive control compound and a negative control compound for the evaluation were also measured similarly. P. aeruginosa is a clinical isolate given by […] Medical Center.

P. aeruginosa PA01 = test: as above; type: cell-based; conditions: for MIC value P. aeruginosa PA01 PAβN +: P. aeruginosa PA01, with PAβN 50 μg/mL; for MIC value P. aeruginosa PA01 PAβN −: P. aeruginosa PA01, without PAβN
Description: as §1

P. aeruginosa 08-05 = test: as above; type: cell-based; conditions: for P. aeruginosa 08-05 MIC ratio: P. aeruginosa 08-05, PAβN(−) MIC/PAβN(+) MIC; for MIC value P. aeruginosa 08-05 PAβN +: P. aeruginosa 08-05, with PAβN 50 μg/mL; for MIC value P. aeruginosa 08-05 PAβN −: P. aeruginosa 08-05, without PAβN
Description: as §1

MRSA9532 = test: Antibacterial effect, MIC by standard method of Japanese Society of Chemotherapy; type: cell-based, methicillin-resistant Staphylococcus aureus; conditions: Staphylococcus aureus
Description: (§2) The minimum inhibitory concentrations (MIC: μg/mL) of the compounds set forth in Table 1 were measured according to the standard method of Japanese Society of Chemotherapy (Japanese Journal of Chemotherapy, 56 (1), 49, 2008). […] P. aeruginosa is a clinical isolate given by Kameda Medical Center. C. difficile is a clinical isolate purchased from International Health Management Associates, Inc. (IHMA).

MRSA9522 = test: as above; type: cell-based, methicillin-resistant Staphylococcus aureus; conditions: Staphylococcus aureus
Description: as §2

C. difficile 2015-13 = test: as above; type: cell-based; conditions: Clostridioides difficile, 201513; C. difficile 2015-13, clinical isolate
Description: as §2

P. aeruginosa 2014-16 = test: as above; type: cell-based; conditions: Pseudomonas aeruginosa, 201416; P. aeruginosa 2014-16, clinical isolate
Description: as §2

C. difficile 2015-12 = test: as above; type: cell-based; conditions: Clostridioides difficile, 201512; C. difficile 2015-12, clinical isolate
Description: as §2

| SMILES | MIC value P. aeruginosa 2014-17 PAβN + (P. aeruginosa 2014-17) [mg/L] | MIC value P. aeruginosa 2014-17 PAβN − (P. aeruginosa 2014-17) [mg/L] | MIC value P. aeruginosa PA01 PAβN + (P. aeruginosa PA01) [mg/L] | MIC value P. aeruginosa PA01 PAβN − (P. aeruginosa PA01) [mg/L] | P. aeruginosa 08-05 MIC ratio (P. aeruginosa 08-05) | MIC value P. aeruginosa 08-05 PAβN + (P. aeruginosa 08-05) [mg/L] | MIC value P. aeruginosa 08-05 PAβN − (P. aeruginosa 08-05) [mg/L] | MIC (MRSA9532) [mg/L] | MIC (MRSA9522) [mg/L] | MIC (C. difficile 2015-13) [mg/L] | MIC (P. aeruginosa 2014-16) [mg/L] | MIC (C. difficile 2015-12) [mg/L] |
| --- | --- | --- | --- | --- | --- | --- | --- | --- | --- | --- | --- | --- |
| CO/N=C(\C(=O)N[C@@H]1C(=O)N2C(C(=O)[O-])=C(C[N+]3(C)CCCC3)CS[C@H]12)c1csc(N)n1 [Cefepime, cefepime, reference compound] | 16 | 64 | 0.5 | 1 | 4 | 2 | 8 | – | – | – | – | – |
| Cc1c(F)c(N2CC(N)C2)c(C)c2c1c(=O)c(C(=O)O)cn2-c1cc(N)c(F)cc1CO [Example 100, 7-(3-Aminoazetidin-1-yl)-1-[5-amino-4-fluoro-2-(hydroxymethyl)phenyl]-5,8-dimethyl-6-fluoro-4-oxo-1,4-dihydroquinoline-3-carboxylic acid] | 0.25 | 2 | 0.016 | 0.12 | 8 | 0.06 | 0.5 | – | – | – | – | – |
| CNC1CN(c2c(F)c(C)c3c(=O)c(C(=O)O)cn(-c4cc(N)c(F)cc4CO)c3c2Cl)C1 [Example 104, 1-[5-Amino-4-fluoro-2-(hydroxymethyl)phenyl]-8-chloro-6-fluoro-5-methyl-7-(3-methylaminoazetidin-1-yl)-4-oxo-1,4-dihydroquinoline-3-carboxylic acid] | 0.25 | 4 | 0.016 | 0.12 | 8 | 0.06 | 0.5 | 1 (≈ 2.09 µM) | 1 (≈ 2.09 µM) | 0.5 (≈ 1.04 µM) | 2 (≈ 4.18 µM) | 1 (≈ 2.09 µM) |
| Cc1c(F)c(N2CC(O)C2)c(Cl)c2c1c(=O)c(C(=O)O)cn2-c1cc(N)c(F)cc1CO [Example 113, 1-[5-Amino-4-fluoro-2-(hydroxymethyl)phenyl]-8-chloro-6-fluoro-7-(3-hydroxyazetidin-1-yl)-5-methyl-4-oxo-1,4-dihydroquinoline-3-carboxylic acid] | – | – | – | – | – | – | – | 1 (≈ 2.15 µM) | 1 (≈ 2.15 µM) | 0.06 (≈ 0.129 µM) | 4 (≈ 8.59 µM) | 0.12 (≈ 0.258 µM) |

The next lines start with the values.

| MIC value P. aeruginosa 2014-17 PAβN + (P. aeruginosa 2014-17) [mg/L] | MIC value P. aeruginosa 2014-17 PAβN − (P. aeruginosa 2014-17) [mg/L] | MIC value P. aeruginosa PA01 PAβN + (P. aeruginosa PA01) [mg/L] | MIC value P. aeruginosa PA01 PAβN − (P. aeruginosa PA01) [mg/L] | P. aeruginosa 08-05 MIC ratio (P. aeruginosa 08-05) | MIC value P. aeruginosa 08-05 PAβN + (P. aeruginosa 08-05) [mg/L] | MIC value P. aeruginosa 08-05 PAβN − (P. aeruginosa 08-05) [mg/L] | MIC (MRSA9532) [mg/L] | MIC (MRSA9522) [mg/L] | MIC (C. difficile 2015-13) [mg/L] | MIC (P. aeruginosa 2014-16) [mg/L] | MIC (C. difficile 2015-12) [mg/L] | SMILES |
| --- | --- | --- | --- | --- | --- | --- | --- | --- | --- | --- | --- | --- |
| – | – | – | – | – | – | – | > 128 | 128 (≈ 386 µM) | – | – | – | O=C(O)c1cn(C2CC2)c2cc(N3CCNCC3)c(F)cc2c1=O [Ciprofloxacin, ciprofloxacin] |
| – | – | – | – | – | – | – | 4 (≈ 9.12 µM) | 4 (≈ 9.12 µM) | 8 (≈ 18.2 µM) | 8 (≈ 18.2 µM) | 16 (≈ 36.5 µM) | Nc1cc(-n2cc(C(=O)O)c(=O)c3cc(F)c(N4CC(N)C4)c(Cl)c32)c(F)cc1F [Comparative Compound 1, 7-(3-Aminoazetidin-1-yl)-1-(5-amino-2,4-difluorophenyl)-8-chloro-6-fluoro-4-oxo-1,4-dihydroquinoline-3-carboxylic acid] |
| – | – | – | – | – | – | – | 2 (≈ 4.42 µM) | 1 (≈ 2.21 µM) | 4 (≈ 8.83 µM) | 16 (≈ 35.3 µM) | 8 (≈ 17.7 µM) | CNC1CN(c2c(F)cc3c(=O)c(C(=O)O)cn(-c4cc(N)c(F)cc4F)c3c2Cl)C1 [Comparative Compound 2, 1-(5-amino-2,4-difluorophenyl)-8-chloro-6-fluoro-7-(3-methylaminoazetidin-1-yl)-4-oxo-1,4-dihydroquinoline-3-carboxylic acid] |
| 4 | 16 | 0.25 | 0.25 | 4 | 0.25 | 1 | – | – | – | – | – | CNC1CN(c2c(F)cc3c(=O)c(C(=O)O)cn(-c4cc(N)c(F)cc4CO)c3c2C)C1 [Example 70] |
| 1 | 32 | 0.06 | 0.5 | 32 | 0.12 | 4 | > 128 | > 128 | > 128 | > 128 | > 128 | C[C@H]1COc2c(N3CCN(C)CC3)c(F)cc3c(=O)c(C(=O)O)cn1c23 [Levofloxacin, levofloxacin, reference compound] |
